From patent publication US12049444B2, “Monomethyl fumarate precursor drug compounds and pharmaceutical compositions thereof” (AGATHONBIO CO., LTD., priority 2019, dated 2024)
Structures can show the parent of a compound that is named as a salt.

Key:
[1] = cited from earlier work
[2] = rat, in vivo, po, 0.139 mmol/kg
Description: The test compounds and control compounds were each prepared in the same way and administered at a dose of 0.139 mmol/kg to rats, and after blood was collected at a predetermined time, plasma was separated. Analysis of the drug was performed using HPLC (XBridge column C18, Waters, mobile phase 0.1% formic acid:acetonitrile (30:70, %/%)) and MS/MS (ESI positive, MRM). Each commercial standard solution was mixed with rat blank plasma at a ratio of 9:1 to prepare standard solutions and calibrate at concentrations of 5, 50, 100, 500, 100 and 5,000 ng/ml. In addition, the QC sample was prepared at 100, 750 and 2,500 ng/ml concentrations by mixing rat blank plasma and QC standard solution in a 9:1 ratio. […] And the concentration of the active ingredient in rat plasma, that is, monomethyl fumarate, was quantified by applying the previously verified assay. For pharmacokinetic parameters, WinNonlin 5.2 (Pharsight, USA) program was used, and AUC0-t, AUC0-∞, Cmax, Tmax, and t1/2 were calculated by noncompartment modeling (best fit). Pharmacokinetic parameter results were expressed as mean (Mean) and standard deviation (SD), and statistically processed using the SPSS program (Statistical Package for the Social Sciences, 10.0K, USA).

Row | AUC0-24 [2] [ng·h/mL] | SMILES | safety in phase 1 clinical trial [1]
1 |  | COC(=O)/C=C/C(=O)OCCN1C(=O)CCC1=O [ALKS8700, diroximel fumarate] | proven to be safe
2 | 8280 | CCN(CC)C(=O)COC(=O)/C=C/C(=O)OC [Reference Example 1, 2-(diethylamino)-2-oxoethyl Methyl Fumarate] | proven to be safe
